According to US20180200257A1, “METHODS FOR THE TREATMENT OF INFLAMMATORY DISORDERS” (Galapagos NV, priority 2015, published 2018):

Tested on: subjects with moderately to severely active RA who have an inadequate response to methotrexate (MTX)
Assay: Study 1 (add-on to MTX) - Creatinine levels
Type: in vivo, human
Procedure: Double-blind, placebo-controlled add on study in subjects with moderately to severely active RA who have an inadequate response to methotrexate (MTX) (oral or parenteral).
595 subjects randomized to one of 6 dose regimens of Compound 1 (dosed as [Compound 1:HCl:3H2O]) (3 dose levels administered either once or twice daily) or placebo on top of each subject's stable dose of MTX.
Compound 1 (dosed as [Compound 1:HCl:3H2O]) is dosed for twelve weeks once daily (q.d.) (50 mg, 100 mg or 200 mg) or twice daily (b.i.d.) (25 mg, 50 mg or 100 mg); or placebo.
At Week 12, the subjects on placebo who have not achieved 20% improvement in swollen joint count (SJC66) and tender joint count (TJC68) are re-randomized automatically to receive Compound 1 (dosed as a [Compound 1:HCl:3H2O]) either at 100 mg q.d. or 50 mg b.i.d. doses in a blinded fashion; subjects on 50 mg q.d. who have not achieved 20% improvement in SJC66 and TJC68 will be assigned to 100 mg q.d. and subjects on 25 mg b.i.d. that have not achieved a 20% improvement in SJC66 and TJC68 will be assigned to 50 mg b.i.d. Subjects who switch treatment at week 12 are handled as if they discontinued at week 12 for the purpose of statistical analysis, whereas subjects in the other groups will maintain their randomized treatment until Week 24.
Creatinine levels determination is available at Quest Diagnostics, Clinical Trials, Quest House, 125-135 Staines Road, Hounslow, Middlesex, TW3 3JB, United Kingdom under Catalogue n# 82565. For Study 3, the data are obtained at BARC Europe, 3B,Industrie Park, Zwijnaarde, B-9052 Ghent, Belgium.
The Enzymatic method is based on the determination of sarcosine after conversion of creatinine with the aid of creatininase, creatinase, and sarcosine oxidase. The liberated hydrogen peroxide reacts with 4-aminophenazone and HTIB to form a quinone imine chromogen. The reaction is catalyzed by peroxidase. The color intensity is directly proportional to concentration of creatinine present and can be measured photometrically.

[1] = 2 × 25 mg b.i.d. (N = 86), week 0
[2] = 2 × 25 mg b.i.d. (N = 86), week 1
[3] = 2 × 25 mg b.i.d. (N = 86), week 2
[4] = 2 × 25 mg b.i.d. (N = 86), week 4
[5] = 2 × 25 mg b.i.d. (N = 86), week 8
[6] = 2 × 25 mg b.i.d. (N = 86), week 12
[7] = 2 × 50 mg b.i.d. (N = 85), week 0
[8] = 2 × 50 mg b.i.d. (N = 85), week 1
[9] = 2 × 50 mg b.i.d. (N = 85), week 2
[10] = 2 × 50 mg b.i.d. (N = 85), week 4
[11] = 2 × 50 mg b.i.d. (N = 85), week 8
[12] = 2 × 50 mg b.i.d. (N = 85), week 12
[13] = 2 × 100 mg b.i.d. (N = 84), week 0
[14] = 2 × 100 mg b.i.d. (N = 84), week 1
[15] = 2 × 100 mg b.i.d. (N = 84), week 2
[16] = 2 × 100 mg b.i.d. (N = 84), week 4
[17] = 2 × 100 mg b.i.d. (N = 84), week 8
[18] = 2 × 100 mg b.i.d. (N = 84), week 12
[19] = continued 50 mg q.d. (N = 63), week 0
[20] = continued 50 mg q.d. (N = 63), week 1
[21] = continued 50 mg q.d. (N = 63), week 2
[22] = continued 50 mg q.d. (N = 63), week 24
[23] = placebo switched to 50 mg b.i.d. at week 12 (N = 15), week 16
[24] = placebo switched to 50 mg b.i.d. at week 12 (N = 15), week 20
[25] = placebo switched to 50 mg b.i.d. at week 12 (N = 15), week 24

O=C(Nc1nc2cccc(-c3ccc(CN4CCS(=O)(=O)CC4)cc3)n2n1)C1CC1 [Compound 1, cyclopropanecarboxylic acid {5-[4-(1,1-dioxo-thiomorpholin-4-ylmethyl)-phenyl]-[1,2,4]triazolo[1,5-a]pyridin-2-yl}-amide]
Creatinine Mean CFB (50 mg q.d. (N = 82), week 0): 0 µmol/L | Creatinine Mean percentage CFB (50 mg q.d. (N = 82), week 0): 0% | Creatinine Mean CFB (50 mg q.d. (N = 82), week 1): 1 µmol/L | Creatinine Mean percentage CFB (50 mg q.d. (N = 82), week 1): 3% | Creatinine Mean CFB (50 mg q.d. (N = 82), week 2): 1 µmol/L | Creatinine Mean percentage CFB (50 mg q.d. (N = 82), week 2): 2% | Creatinine Mean CFB (50 mg q.d. (N = 82), week 4): 1 µmol/L | Creatinine Mean percentage CFB (50 mg q.d. (N = 82), week 4): 3% | Creatinine Mean CFB (50 mg q.d. (N = 82), week 8): 2 µmol/L | Creatinine Mean percentage CFB (50 mg q.d. (N = 82), week 8): 4% | Creatinine Mean CFB (50 mg q.d. (N = 82), week 12): 2 µmol/L | Creatinine Mean percentage CFB (50 mg q.d. (N = 82), week 12): 3% | Creatinine Mean CFB (100 mg q.d. (N = 85), week 0): 0 µmol/L | Creatinine Mean percentage CFB (100 mg q.d. (N = 85), week 0): 0% | Creatinine Mean CFB (100 mg q.d. (N = 85), week 1): 2 µmol/L | Creatinine Mean percentage CFB (100 mg q.d. (N = 85), week 1): 4% | Creatinine Mean CFB (100 mg q.d. (N = 85), week 2): 3 µmol/L | Creatinine Mean percentage CFB (100 mg q.d. (N = 85), week 2): 5% | Creatinine Mean CFB (100 mg q.d. (N = 85), week 4): 2 µmol/L | Creatinine Mean percentage CFB (100 mg q.d. (N = 85), week 4): 4% | Creatinine Mean CFB (100 mg q.d. (N = 85), week 8): 2 µmol/L | Creatinine Mean percentage CFB (100 mg q.d. (N = 85), week 8): 4% | Creatinine Mean CFB (100 mg q.d. (N = 85), week 12): 4 µmol/L | Creatinine Mean percentage CFB (100 mg q.d. (N = 85), week 12): 7% | Creatinine Mean CFB (200 mg q.d. (N = 86), week 0): 0 µmol/L | Creatinine Mean percentage CFB (200 mg q.d. (N = 86), week 0): 0% | Creatinine Mean CFB (200 mg q.d. (N = 86), week 1): 3 µmol/L | Creatinine Mean percentage CFB (200 mg q.d. (N = 86), week 1): 6% | Creatinine Mean CFB (200 mg q.d. (N = 86), week 2): 3 µmol/L | Creatinine Mean percentage CFB (200 mg q.d. (N = 86), week 2): 6% | Creatinine Mean CFB (200 mg q.d. (N = 86), week 4): 4 µmol/L | Creatinine Mean percentage CFB (200 mg q.d. (N = 86), week 4): 7% | Creatinine Mean CFB (200 mg q.d. (N = 86), week 8): 4 µmol/L | Creatinine Mean percentage CFB (200 mg q.d. (N = 86), week 8): 7% | Creatinine Mean CFB (200 mg q.d. (N = 86), week 12): 4 µmol/L | Creatinine Mean percentage CFB (200 mg q.d. (N = 86), week 12): 8% | Creatinine Mean CFB [1]: 0 µmol/L | Creatinine Mean percentage CFB [1]: 0% | Creatinine Mean CFB [2]: 1 µmol/L | Creatinine Mean percentage CFB [2]: 2% | Creatinine Mean CFB [3]: 1 µmol/L | Creatinine Mean percentage CFB [3]: 2% | Creatinine Mean CFB [4]: 0 µmol/L | Creatinine Mean percentage CFB [4]: 2% | Creatinine Mean CFB [5]: 2 µmol/L | Creatinine Mean percentage CFB [5]: 3% | Creatinine Mean CFB [6]: 1 µmol/L | Creatinine Mean percentage CFB [6]: 3% | Creatinine Mean CFB [7]: 0 µmol/L | Creatinine Mean percentage CFB [7]: 0% | Creatinine Mean CFB [8]: 3 µmol/L | Creatinine Mean percentage CFB [8]: 5% | Creatinine Mean CFB [9]: 4 µmol/L | Creatinine Mean percentage CFB [9]: 6% | Creatinine Mean CFB [10]: 3 µmol/L | Creatinine Mean percentage CFB [10]: 5% | Creatinine Mean CFB [11]: 3 µmol/L | Creatinine Mean percentage CFB [11]: 6% | Creatinine Mean CFB [12]: 4 µmol/L | Creatinine Mean percentage CFB [12]: 7% | Creatinine Mean CFB [13]: 0 µmol/L | Creatinine Mean percentage CFB [13]: 0% | Creatinine Mean CFB [14]: 5 µmol/L | Creatinine Mean percentage CFB [14]: 8% | Creatinine Mean CFB [15]: 4 µmol/L | Creatinine Mean percentage CFB [15]: 8% | Creatinine Mean CFB [16]: 4 µmol/L | Creatinine Mean percentage CFB [16]: 8% | Creatinine Mean CFB [17]: 7 µmol/L | Creatinine Mean percentage CFB [17]: 12% | Creatinine Mean CFB [18]: 6 µmol/L | Creatinine Mean percentage CFB [18]: 12% | Creatinine Mean CFB [19]: 0.0 µmol/L | Creatinine Mean percentage CFB [19]: 0.0% | Creatinine Mean CFB [20]: 1.4 µmol/L | Creatinine Mean percentage CFB [20]: 3.0% | Creatinine Mean CFB [21]: 0.7 µmol/L | Creatinine Mean percentage CFB [21]: 1.6% | Creatinine Mean CFB [22]: 0.6 µmol/L | Creatinine Mean percentage CFB [22]: 2.1% | Creatinine Mean CFB [23]: 4.2 µmol/L | Creatinine Mean percentage CFB [23]: 8.2% | Creatinine Mean CFB [24]: 3.6 µmol/L | Creatinine Mean percentage CFB [24]: 7.2% | Creatinine Mean CFB [25]: 4.6 µmol/L | Creatinine Mean percentage CFB [25]: 8.7%
